Results from patent US9458479B2, “Method for late introduction of the (8R) hydroxyl group carbapenem β-lactam antibiotic synthesis” (THE JOHNS HOPKINS UNIVERSITY, priority 2009, dated 2016).

Legend:
ThnG = experiment: In vitro reaction of carbapenam/ems with purified ThnG, HPLC and ESI-MS analysis of products; assay type: biochemical, Streptomyces cattleya; settings: 1 mM substrate, 0.2 mg/mL ThnG, 25 mM MOPS pH 7.0, ferrous ammonium sulfate, α-KG, ascorbate, room temperature 1 h
Experimental: (§1) Thienamycin biosynthetic cluster genes thnG and thnQ were cloned from genomic DNA and inserted into pET29b each bearing a C-terminal His6-tag. The recombinant proteins were overproduced in E. coli Rosetta2(DE3) and purified by Ni-NTA affinity chromatography. In vitro reactions in MOPS, pH 7.0, containing Fe(NH4)2(SO4)2, α-KG, ascorbate, the subject carbapenam/em, and either ThnG or ThnQ were incubated and analyzed by HPLC for the formation of new product(s). Salowe, S. P., et al., Biochemistry 29(27):6499-6508 (1990); Decristoforo, G. Anal. Chim. Acta 163(SEP):25-33 (1984). […] The products were immediately identifiable as carbapenems by their unique chromophores (λmax=290-320 nm). ThnQ produced a single new product more polar than 5, while ThnG produced two products, one with a shorter retention time and one with a longer retention time than that of 5.
For routine HPLC analysis, reactions were assembled containing 25 mM MOPS, pH 7.0, 1 mM ascorbate, 0.08 mM ferrous ammonium sulfate, 8 mM α-ketoglutarate (α-KG), 1 mM of the substrate and 0.2 mg/mL ThnG or ThnQ. Salowe, S. P., et al., Biochemistry 29(27):6499-6508 (1990). After addition of the protein, the reactions were incubated at room temperature for 1 h. The protein was then removed with an Amicon Ultra 10,000 MWCO filter. For ESI mass spectroscopic analysis of HPLC purified enzymatic products, reactions were assembled under similar conditions except containing 2 mM substrate, 2 mM ascorbate and 0.6 mg/mL ThnG or ThnQ.
(§2) HPLC conditions: Phenomenex Luna 5 μC18(2) analytical column; Method 1, A=50 mM ammonium formate pH 8.5, B=MeOH, t=0 min 0% B, t=10 min 35% B, t=13 min 35% B, t=15 min 0% B, t=20 min 0% B. Method 2, A=50 mM ammonium formate pH 8.5, B=MeOH, t=0 min 0% B, t=10 min 33% B, t=18 min 33% B, t=20 min 0% B, t=25 min 0% B. λ=300 nm (carbapenem) or 220 nm (carbapenam). Decristoforo, G., Anal. Chim. Acta 163:25-33 (1984). Purified carbapenems were collected from the HPLC and analyzed directly by ESI mass spectrometry in the negative ion mode.

ThnQ = experiment: In vitro reaction of carbapenam/ems with purified ThnQ, HPLC and ESI-MS analysis of products; assay type: biochemical, Streptomyces cattleya; settings: 1 mM substrate, 0.2 mg/mL ThnQ, 25 mM MOPS pH 7.0, ferrous ammonium sulfate, α-KG, ascorbate, room temperature 1 h
Experimental: as §1, with “5. […]” for “5.”
as §2, with “Decristoforo, G., Anal. Chim. Acta 163:25-33 (1984).” left out

SMILES	product(s) of the ThnG-catalyzed reaction (HPLC, ESI-MS) (ThnG)	product(s) of the ThnQ-catalyzed reaction (HPLC, ESI-MS) (ThnQ)
CC(=O)NCCSC1=C(C(=O)O)N2C(=O)[C@H]([C@@H](C)O)[C@H]2C1 [compound 2, N-acetyl thienamycin]	N-acetyl dehydrothienamycin (3)	–
CCC1C(=O)N2C(C(=O)O)=C([S+]([O-])CCNC(C)=O)CC12 (stereo not drawn) [compound 8, PS-5 sulfoxide]	unable to catalyze desaturation	–
CCC1C(=O)N2C(C(=O)O)=C(S/C=C/NC(C)=O)CC12 (stereo not drawn) [compound 7, PS-7]	able to convert 7 to its sulfoxide	N-acetyl dehydrothienamycin (3)
CC[C@H]1C(=O)N2C(C(=O)O)=C(SCCNC(C)=O)C[C@H]12 [compound 5, PS-5]	identified as PS-7 (7) and PS-7 sulfoxide 9	stereospecifically hydroxylated PS-5 (5) to produce 2
